Reference: ChEMBL document CHEMBL1131651, “Discovery of LB30057, a benzamidrazone-based selective oral thrombin inhibitor” (Bioorg Med Chem Lett, 1998)

Experiments:
Prothrombin [1] = target: Prothrombin (Bos taurus, UniProt P00735)
Description: Compound was tested for inhibitory activity against bovine thrombin

[2] = target: Tissue-type plasminogen activator (Homo sapiens, UniProt P00750); experiment: The compound was tested for inhibitory activity against tissue plasminogen activator
Coagulation factor X = Coagulation factor X (Homo sapiens, UniProt P00742); experiment: The compound was tested for inhibitory activity against Coagulation factor X
Sequence of Coagulation factor X (P00742 41-179 limits assumed): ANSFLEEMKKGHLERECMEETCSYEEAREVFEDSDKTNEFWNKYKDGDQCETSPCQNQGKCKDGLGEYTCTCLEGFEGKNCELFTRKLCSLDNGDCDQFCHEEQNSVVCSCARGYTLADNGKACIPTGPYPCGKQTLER
Sequence of Coagulation factor X (P00742 235-488 limits assumed): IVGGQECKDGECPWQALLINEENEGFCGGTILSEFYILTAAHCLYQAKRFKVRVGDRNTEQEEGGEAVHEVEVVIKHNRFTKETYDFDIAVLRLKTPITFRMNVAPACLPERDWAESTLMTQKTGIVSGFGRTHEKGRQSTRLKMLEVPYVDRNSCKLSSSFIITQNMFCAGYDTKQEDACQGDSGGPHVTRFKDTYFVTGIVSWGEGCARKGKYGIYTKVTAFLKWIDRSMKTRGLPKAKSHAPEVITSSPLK

[3] = Half life was evaluated in dog; assay type: ADME, organism-based, Canis lupus familiaris; details: in vivo
Prothrombin [4] = target: Prothrombin (Homo sapiens, UniProt P00734); experiment: Compound was tested for inhibitory activity against human thrombin
[5] = Compound was tested for percent of oral bioavailability at 10 […] dose in dogs; assay type: ADME, organism-based, Canis lupus familiaris; details: dog, in vivo, read-out: Bioavailabiility
Plasminogen = Plasminogen (Homo sapiens, UniProt P00747); experiment: The compound was tested for inhibitory activity against human plasmin
Sequence of Plasminogen (P00747 97-580 limits assumed): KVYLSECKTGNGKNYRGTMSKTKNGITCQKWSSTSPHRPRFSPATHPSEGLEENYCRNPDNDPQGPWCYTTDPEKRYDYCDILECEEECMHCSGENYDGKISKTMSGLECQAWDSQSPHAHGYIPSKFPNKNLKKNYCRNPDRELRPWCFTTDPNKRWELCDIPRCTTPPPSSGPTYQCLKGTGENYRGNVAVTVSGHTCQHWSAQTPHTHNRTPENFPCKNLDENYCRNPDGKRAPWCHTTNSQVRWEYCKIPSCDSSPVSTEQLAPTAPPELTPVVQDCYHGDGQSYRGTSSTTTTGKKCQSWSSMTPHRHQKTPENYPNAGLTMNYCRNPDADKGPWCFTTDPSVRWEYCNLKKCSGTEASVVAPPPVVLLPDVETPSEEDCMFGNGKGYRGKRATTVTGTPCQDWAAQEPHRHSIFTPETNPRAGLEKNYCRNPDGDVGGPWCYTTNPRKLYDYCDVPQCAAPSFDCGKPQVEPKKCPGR
Sequence of Plasminogen (P00747 581-810 limits assumed): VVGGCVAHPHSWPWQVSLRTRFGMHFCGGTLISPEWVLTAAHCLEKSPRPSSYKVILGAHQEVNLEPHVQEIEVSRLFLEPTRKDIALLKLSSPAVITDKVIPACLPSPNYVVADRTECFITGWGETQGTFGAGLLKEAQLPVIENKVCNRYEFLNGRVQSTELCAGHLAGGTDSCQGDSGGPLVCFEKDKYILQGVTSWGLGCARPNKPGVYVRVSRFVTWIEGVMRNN

Sequence of Tissue-type plasminogen activator (P00750 whole entry): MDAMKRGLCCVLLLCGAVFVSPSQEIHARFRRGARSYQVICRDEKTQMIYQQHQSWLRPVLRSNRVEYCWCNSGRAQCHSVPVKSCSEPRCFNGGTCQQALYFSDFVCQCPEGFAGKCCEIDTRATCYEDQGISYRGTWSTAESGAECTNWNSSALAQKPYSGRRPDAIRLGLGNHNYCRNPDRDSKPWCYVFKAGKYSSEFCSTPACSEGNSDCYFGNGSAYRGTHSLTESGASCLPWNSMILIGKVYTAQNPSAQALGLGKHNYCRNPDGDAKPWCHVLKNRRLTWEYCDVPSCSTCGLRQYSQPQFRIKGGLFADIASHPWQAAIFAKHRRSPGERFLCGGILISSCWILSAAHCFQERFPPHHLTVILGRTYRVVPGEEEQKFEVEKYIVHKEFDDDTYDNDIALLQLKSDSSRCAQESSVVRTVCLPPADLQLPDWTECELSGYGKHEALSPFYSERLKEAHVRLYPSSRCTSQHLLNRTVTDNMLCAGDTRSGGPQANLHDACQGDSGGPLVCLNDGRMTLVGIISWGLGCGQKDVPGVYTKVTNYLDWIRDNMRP

| Structure (SMILES) | Ki (Prothrombin [1]) [nM] | Ki [2] [nM] | Ki (Coagulation factor X) [nM] | half-life [3] [h] | Ki (Prothrombin [4]) [nM] | bioavailability [5] [%] | Ki (Plasminogen) [nM] |
| --- | --- | --- | --- | --- | --- | --- | --- |
| CCN(C(=O)[C@H](Cc1ccc(C(=N)NN)cc1)NS(=O)(=O)c1ccc2ccccc2c1)C1CCCC1 | 4 | – | – | – | – | – | – |
| NN=C(N)c1ccc(C[C@H](NS(=O)(=O)c2ccc3ccccc3c2)C(=O)N(CCO)C2CCCC2)cc1 | 7040 | – | – | – | – | – | – |
| N=C(NN)c1ccc(C[C@H](NS(=O)(=O)c2ccc3ccccc3c2)C(=O)N2CCCCCC2)cc1 | 1470 | – | – | – | – | – | – |
| CN(C(=O)[C@H](Cc1ccc(C(=N)NN)cc1)NS(=O)(=O)c1ccc2ccccc2c1)C1CCCC1 | 1.1 | 27200 | 1100 | 1.87 | 0.38 | 58 | 47900 |
